Source: US8192962B2, “Processes for detecting toxic substances” (Daikin Industries, Ltd., priority 2001, dated 2012)

Tested on: Genes belonging to other category
Experiment: DNA chip mRNA expression in yeast, genes belonging to other category (Table 9)
Assay type: cell-based, Saccharomyces cerevisiae S288C
Summary of the method: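 Values are treated/untreated fluorescence ratios from a whole-genome yeast DNA chip hybridized over 12 hours at 65° C with Cy3- or Cy5-labelled cDNA from poly(A) mRNA. Log-phase S288C yeast in YPD at 25° C had received a single toxic chemical for two hours, dosed to slow growth without killing.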

N#Cc1c(Cl)c(Cl)c(Cl)c(C#N)c1Cl [(9), 2,4,5,6-tetrachloro-1,3-benzenedicarbonitrile]
The level of expressed mRNA in the presence of chemical substance/The level of expressed mRNA in the absence of chemical substance (yeast gene YMR297W): 1.9
The level of expressed mRNA in the presence of chemical substance/The level of expressed mRNA in the absence of chemical substance (yeast gene YMR314W): 5.9
The level of expressed mRNA in the presence of chemical substance/The level of expressed mRNA in the absence of chemical substance (yeast gene YNL006W): 4.0
The level of expressed mRNA in the presence of chemical substance/The level of expressed mRNA in the absence of chemical substance (yeast gene YNL007C): 3.0
The level of expressed mRNA in the presence of chemical substance/The level of expressed mRNA in the absence of chemical substance (yeast gene YNL036W): 6.6
The level of expressed mRNA in the presence of chemical substance/The level of expressed mRNA in the absence of chemical substance (yeast gene YNL039W): 2.1
The level of expressed mRNA in the presence of chemical substance/The level of expressed mRNA in the absence of chemical substance (yeast gene YNL093W): 1.7
The level of expressed mRNA in the presence of chemical substance/The level of expressed mRNA in the absence of chemical substance (yeast gene YNL147W): 2.1
The level of expressed mRNA in the presence of chemical substance/The level of expressed mRNA in the absence of chemical substance (yeast gene YNL214W): 1.5
The level of expressed mRNA in the presence of chemical substance/The level of expressed mRNA in the absence of chemical substance (yeast gene YNL333W): 2.3
The level of expressed mRNA in the presence of chemical substance/The level of expressed mRNA in the absence of chemical substance (yeast gene YNR010W): 1.7
The level of expressed mRNA in the presence of chemical substance/The level of expressed mRNA in the absence of chemical substance (yeast gene YNR037C): 1.3
The level of expressed mRNA in the presence of chemical substance/The level of expressed mRNA in the absence of chemical substance (yeast gene YNR069C): 5.5
The level of expressed mRNA in the presence of chemical substance/The level of expressed mRNA in the absence of chemical substance (yeast gene YOL013C): 0.8
The level of expressed mRNA in the presence of chemical substance/The level of expressed mRNA in the absence of chemical substance (yeast gene YOL164W): 4.9
The level of expressed mRNA in the presence of chemical substance/The level of expressed mRNA in the absence of chemical substance (yeast gene YOR036W): 1.2
The level of expressed mRNA in the presence of chemical substance/The level of expressed mRNA in the absence of chemical substance (yeast gene YOR058C): 6.4
The level of expressed mRNA in the presence of chemical substance/The level of expressed mRNA in the absence of chemical substance (yeast gene YOR069W): 1.9
The level of expressed mRNA in the presence of chemical substance/The level of expressed mRNA in the absence of chemical substance (yeast gene YOR117W): 3.5
The level of expressed mRNA in the presence of chemical substance/The level of expressed mRNA in the absence of chemical substance (yeast gene YOR124C): 2.0
The level of expressed mRNA in the presence of chemical substance/The level of expressed mRNA in the absence of chemical substance (yeast gene YOR132W): 2.8
The level of expressed mRNA in the presence of chemical substance/The level of expressed mRNA in the absence of chemical substance (yeast gene YOR134W): 1.5
The level of expressed mRNA in the presence of chemical substance/The level of expressed mRNA in the absence of chemical substance (yeast gene YOR149C): 0.4
The level of expressed mRNA in the presence of chemical substance/The level of expressed mRNA in the absence of chemical substance (yeast gene YOR157C): 5.7
The level of expressed mRNA in the presence of chemical substance/The level of expressed mRNA in the absence of chemical substance (yeast gene YOR165W): 0.8
The level of expressed mRNA in the presence of chemical substance/The level of expressed mRNA in the absence of chemical substance (yeast gene YOR181W): 0.6
The level of expressed mRNA in the presence of chemical substance/The level of expressed mRNA in the absence of chemical substance (yeast gene YOR185C): 1.9
The level of expressed mRNA in the presence of chemical substance/The level of expressed mRNA in the absence of chemical substance (yeast gene YOR198C): 2.4
The level of expressed mRNA in the presence of chemical substance/The level of expressed mRNA in the absence of chemical substance (yeast gene YOR256C): 2.7
The level of expressed mRNA in the presence of chemical substance/The level of expressed mRNA in the absence of chemical substance (yeast gene YOR259C): 2.7
The level of expressed mRNA in the presence of chemical substance/The level of expressed mRNA in the absence of chemical substance (yeast gene YOR261C): 5.5
The level of expressed mRNA in the presence of chemical substance/The level of expressed mRNA in the absence of chemical substance (yeast gene YOR285W): 4.0
The level of expressed mRNA in the presence of chemical substance/The level of expressed mRNA in the absence of chemical substance (yeast gene YOR288C): 0.9
The level of expressed mRNA in the presence of chemical substance/The level of expressed mRNA in the absence of chemical substance (yeast gene YOR327C): 1.4
The level of expressed mRNA in the presence of chemical substance/The level of expressed mRNA in the absence of chemical substance (yeast gene YOR355W): 0.1
The level of expressed mRNA in the presence of chemical substance/The level of expressed mRNA in the absence of chemical substance (yeast gene YOR362C): 4.3
The level of expressed mRNA in the presence of chemical substance/The level of expressed mRNA in the absence of chemical substance (yeast gene YOR383C): 1.2
The level of expressed mRNA in the presence of chemical substance/The level of expressed mRNA in the absence of chemical substance (yeast gene YPL001W): 0.7
The level of expressed mRNA in the presence of chemical substance/The level of expressed mRNA in the absence of chemical substance (yeast gene YPL018W): 1.4
The level of expressed mRNA in the presence of chemical substance/The level of expressed mRNA in the absence of chemical substance (yeast gene YPL020C): 2.3
The level of expressed mRNA in the presence of chemical substance/The level of expressed mRNA in the absence of chemical substance (yeast gene YPL089C): 0.4
The level of expressed mRNA in the presence of chemical substance/The level of expressed mRNA in the absence of chemical substance (yeast gene YPL109C): 1.2
The level of expressed mRNA in the presence of chemical substance/The level of expressed mRNA in the absence of chemical substance (yeast gene YPL149W): 5.6
The level of expressed mRNA in the presence of chemical substance/The level of expressed mRNA in the absence of chemical substance (yeast gene YPL154C): 2.8
The level of expressed mRNA in the presence of chemical substance/The level of expressed mRNA in the absence of chemical substance (yeast gene YPR066W): 2.3
The level of expressed mRNA in the presence of chemical substance/The level of expressed mRNA in the absence of chemical substance (yeast gene YPR081C): 4.2
The level of expressed mRNA in the presence of chemical substance/The level of expressed mRNA in the absence of chemical substance (yeast gene YPR086W): 3.0
The level of expressed mRNA in the presence of chemical substance/The level of expressed mRNA in the absence of chemical substance (yeast gene YPR103W): 5.5
The level of expressed mRNA in the presence of chemical substance/The level of expressed mRNA in the absence of chemical substance (yeast gene YPR107C): 2.4
The level of expressed mRNA in the presence of chemical substance/The level of expressed mRNA in the absence of chemical substance (yeast gene YPR108W): 3.7
